In article PMC10706821, “Folate-Appended Hydroxypropyl-β-Cyclodextrin Induces Autophagic Cell Death in Acute Myeloid Leukemia Cells” (International Journal of Molecular Sciences, 2023):

Key:
[1] = tested on: THP1 cells; test: AML xenograft survival model; assay type: in vivo, BALB/c Rag-2/JAK3 double-deficient (BRJ) mice; conditions: 20 days; for Median Survival Time: Figure 7B, HP-β-CyD 2086.5 mg/kg i.p. twice a day, FA-HP-β-CyD 249 mg/kg i.p. twice a day, Ara-C 100 mg/kg i.p., n = 6
Procedure: (§1) BALB/c Rag-2/JAK3 double-deficient (BRJ) mice were housed in a specific pathogen-free barrier facility and used for the xenograft transplantation experiments. All animal experiments were approved by the Institutional Review Board of Saga University and conducted in accordance with the institutional guidelines of animal care of Saga University.
(§2) HL-60 cells or THP-1 cells were injected intravenously into BRJ mice. After 72 h, mice were injected intraperitoneally with 200 μL of vehicle, FA-HP-β-CyD (15 mM, 249 mg/kg), or HP-β-CyD (150 mM, 2086.5 mg/kg) for 20 consecutive days, and survival was monitored daily. Ara-C (100 mg/kg) was injected intraperitoneally for 5 consecutive days from 72 h after transplantation. Venetoclax (25 mg/kg) was orally administered for 20 consecutive days from 72 h after transplantation. Chimerism of human leukemic cells in the BM was determined by flow cytometry after double staining with FITC-conjugated anti-human CD45 (BD Bioscience) and PE/Cy7-conjugated anti-mouse CD45 (BioLegend) antibodies. All surgery was performed under sodium pentobarbital anesthesia to minimize pain. Mice were euthanized with ether when they became moribund or were unable to obtain food or water, as recommended by Saga University institutional guidelines. Survival data were analyzed using a log-rank nonparametric test and presented as Kaplan–Meier survival curves (n = 6 for each group).

[2] = tested on: HL-60 cells; test: AML xenograft survival model; assay type: in vivo, BALB/c Rag-2/JAK3 double-deficient (BRJ) mice; conditions: HL-60 xenograft, 20 days; for Median Survival Time: HP-β-CyD 2086.5 mg/kg i.p. twice a day, FA-HP-β-CyD 249 mg/kg i.p. twice a day, n = 6
Procedure: as §1, §2

[3] = tested on: SKM-1; test: modified MTT assay (Cell Counting Kit-8), cell proliferation; assay type: cell-based, human
Procedure: (§3) The trypan blue dye exclusion method was used to evaluate cell viability. Cells (HL-60, THP1, SKM1 and Kasumi1 cells) were seeded in flat-bottomed 96-well plates at a density of 1 × 10^4 cells in 100 µL medium per well and incubated with FA-HP-β-CyD (0, 0,1, 0.25, 0.5, 0.75, 1 mM) or HP-β-CyD (0, 1, 2.5, 5, 10 mM) for 72 h. Then, viable cells were counted. Cell proliferation was evaluated by a modified MTT assay using Cell Counting Kit-8 (Dojindo Molecular Technologies, Kumamoto, Japan), as previously described. AML cells were cultured in 96-well plates at a density of 1 × 10^4 cells in 100 µL medium per well and incubated with FA-HP-β-CyD or HP-β-CyD for 72 h. The half-maximal inhibitory concentration values (IC50) were determined by non-linear regression using CalcuSyn software version 1.1.1 (Biosoft, Cambridge, UK), as previously described. After obtaining IC50 values for each agent, the antileukemic activity of FA-HP-β-CyD plus cytosine arabinoside (Ara-C) or Venetoclax was evaluated, as previously described. […] CalcuSyn was used to calculate the fraction affected (Fa, in which a value of 0.25 indicates […]) and the CI. This method is capable of quantifying synergistic (CI < 1) and antagonistic (CI > 1) effects at different dose and effect levels.

[4] = tested on: HL-60; test: as above; assay type: cell-based, human
Procedure: as §3

[5] = tested on: THP-1; test: as above; assay type: cell-based, human
Procedure: as §3

[6] = tested on: AML cell lines; test: trypan blue dye exclusion, cell viability; assay type: cell-based, human; conditions: 72 h; FA-HP-β-CyD up to 1 mM, HP-β-CyD up to 10 mM
Procedure: (§4) The trypan blue dye exclusion method was used to evaluate cell viability. Cells (HL-60, THP1, SKM1 and Kasumi1 cells) were seeded in flat-bottomed 96-well plates at a density of 1 × 10^4 cells in 100 µL medium per well and incubated with FA-HP-β-CyD (0, 0,1, 0.25, 0.5, 0.75, 1 mM) or HP-β-CyD (0, 1, 2.5, 5, 10 mM) for 72 h. Then, viable cells were counted. Cell proliferation was evaluated by a modified MTT assay using Cell Counting Kit-8 (Dojindo Molecular Technologies, Kumamoto, Japan), as previously described. AML cells were cultured in 96-well plates at a density of 1 × 10^4 cells in 100 µL medium per well and incubated with FA-HP-β-CyD or HP-β-CyD for 72 h. […] This method is capable of quantifying synergistic (CI < 1) and antagonistic (CI > 1) effects at different dose and effect levels.

[7] = tested on: AML cell lines; test: Annexin V and PI staining, statements over all AML cell lines; assay type: cell-based, human; conditions: for apoptosis induction: four AML cell lines, 72 h
Procedure: PI and Annexin V (BD Biosciences, San Jose, CA, USA) staining was performed to assess apoptosis, as previously described [53]. Cells were filtered through nylon mesh and assessed using a FACSVerse flow cytometer (BD Biosciences). Data were analyzed using FlowJo software 10.8.2 (Tree Star, Inc., Ashland, OR, USA).

[8] = tested on: Kasumi-1; test: modified MTT assay (Cell Counting Kit-8), cell proliferation; assay type: cell-based, human; conditions: Kasumi-1, 72 h
Procedure: as §4

[9] = tested on: THP1; test: autophagosome formation (DAPGreen); assay type: cell-based, human; conditions: THP1, 1 or 10 mM, 2 h
Procedure: (§5) Autophagosome formation was evaluated using the DAPGreen-Autophagy Detection Kit (Dojindo Molecular Technologies). HL-60 and THP1 cells were cultured overnight in 6-well plates at a density of 5 × 10^5 or 1 × 10^6 cells. The cells were then washed once with culture medium and incubated with DAPGreen working solution at 37 °C for 30 min. After the cells were washed twice, CyDs (1 mM, 10 mM) were added to the wells and incubated for 2 h. The samples were analyzed using a flow cytometer (FACS Canto II) or a fluorescence microscope (Carl Zeiss, Jena, Germany).

[10] = tested on: HL-60; test: autophagosome formation (DAPGreen); assay type: cell-based, human; conditions: HL-60, 1 or 10 mM, 2 h
Procedure: as §5

[11] = tested on: SKM1; test: cell cycle analysis (PI, flow cytometry); assay type: cell-based, human
Procedure: (§6) Cell cycle analyses of AML cell lines (HL-60, THP1, SKM1, and Kasumi1 cells) were performed as described previously. In brief, 1 × 10^6 cells were treated with the indicated concentrations of CyDs. After 24 h of CyD treatment, cells were collected and fixed with 70% ethanol. Cells were then incubated at room temperature for 30 min with 0.1% Triton X-100/0.5% RNase A and stained with 50 μg/mL PI (BD Biosciences, San Jose, CA, USA). Cellular DNA content was analyzed by flow cytometry, and cell cycle profiles were determined in a FACS CantoII flow cytometer with CellQuest software (version 1.0.6, BD Biosciences).

[12] = tested on: Kasumi1; test: cell cycle analysis (PI, flow cytometry); assay type: cell-based, human; conditions: Kasumi1, 24 h
Procedure: as §6

[13] = tested on: THP1; test: cell cycle analysis (PI, flow cytometry); assay type: cell-based, human; conditions: THP1, 24 h
Procedure: as §6

[14] = tested on: HL-60; test: cell cycle analysis (PI, flow cytometry); assay type: cell-based, human; conditions: HL-60, 24 h
Procedure: as §6

[15] = tested on: THP1; test: cell viability with autophagy inhibitors (Cell Counting Kit-8); assay type: cell-based, human; conditions: 1 mM FA-HP-β-CyD or 10 mM HP-β-CyD, chloroquine 20 μM, LY294002 50 μM, bafilomycin A1 1 nM
Procedure: (§7) HL-60 and THP1 cells (2 × 10^5 cells in 100 µL of RPMI-1640 medium per well) were seeded in flat-bottomed 96-well plates (Greiner Labortechnik, Hamburg, Germany) and treated with both 1 mM of FA-HP-β-CyD and 10 mM of HP-β-CyD at 37 °C for 2 h. The cells were then pretreated for 24 h with the autophagy inhibitors chloroquine (20 µM), LY294002 (50 μM; Fujifilm Wako Pure Chemicals Co., Ltd., Osaka, Japan), or bafilomycin A1 (1 nM; Funakoshi, Tokyo, Japan). Cell proliferation was assessed using Cell Counting Kit-8.

[16] = tested on: HL-60; test: as above; assay type: cell-based, human; conditions: 1 mM FA-HP-β-CyD or 10 mM HP-β-CyD, chloroquine 20 μM, LY294002 50 μM, bafilomycin A1 1 nM
Procedure: as §7

[17] = mouse, in vivo, ip
Procedure: (§8) At 24 h after the first injection, and at 8 days after the last of seven repeat injections, peripheral blood was collected from the tail vein and analyzed by an automated blood cell counter (Celltacα MEK-6500; NIHON KOHDEN, Tokyo, Japan). Data are presented as the mean ± SEM of three independent experiments.

[18] = tested on: normal human bone marrow CD34-positive progenitor cells; test: methylcellulose colony formation assay; conditions: 10 mM HP-β-CyD, 1 mM FA-HP-β-CyD, 1 week of culture
Description: Human bone marrow CD34 positive cells were purchased from LONZA (Bazel, Switzerland). […] After 1 week of culture, the number of colonies was counted using an inverted microscope. Data represent the mean number of colonies ± SEM (n = 3).

[19] = peripheral blood cell count after intraperitoneal administration; conditions: for Hb / Plt / WBC: seven repeat injections, Day 8
Procedure: as §8

[20] = Figure 7A, Ara-C 100 mg/kg i.p.
[21] = Figure 7C, Venetoclax 25 mg/kg oral gavage daily

| Compound | Median Survival Time [1] | Median Survival Time [2, 20] | IC50 ([3]; Homo sapiens, SKM-1, SKM1) | IC50 ([4]; Homo sapiens, HL-60) | IC50 ([5]; Homo sapiens, THP-1, THP1) | Median Survival Time [2, 21] | cell viability (trypan blue) [6] | apoptosis induction [7] | effect on cell cycle status [12] | effect on cell cycle status [13] | effect on cell cycle status [14] | viability in the presence of autophagy inhibitors vs CyD alone [15] | viability in the presence of autophagy inhibitors vs CyD alone [16] | also measured |
| --- | --- | --- | --- | --- | --- | --- | --- | --- | --- | --- | --- | --- | --- | --- |
| Nc1ccn([C@@H]2O[C@H](CO)[C@@H](O)[C@@H]2O)c(=O)n1 [Ara-C, cytarabine] | 45.5 days | 34 days | 0.6 µM | 0.495 µM | 7.19 µM |  |  |  |  |  |  |  |  |  |
| CC1(C)CCC(CN2CCN(c3ccc(C(=O)NS(=O)(=O)c4ccc(NCC5CCOCC5)c([N+](=O)[O-])c4)c(Oc4cnc5[nH]ccc5c4)c3)CC2)=C(c2ccc(Cl)cc2)C1 [Venetoclax] |  |  | 1.1 µM | 0.0503 µM | 0.442 µM | 36 days |  |  |  |  |  |  |  |  |
| folate-conjugated HP-β-CyD [FA-HP-β-CyD] | 50.5 days | 38 days |  |  |  | 35 days | reduced the cell viability of the AML cell lines in a dose-dependent manner | triggered early apoptosis in four AML cell lines in a dose-dependent manner | no alteration in cell cycle status | no alteration in cell cycle status | no alteration in cell cycle status | higher than that in the presence of FA-HP-β-CyD alone | higher than that in the presence of FA-HP-β-CyD alone | survival compared with vehicle-injected mice ([1]; 249 mg/kg i.p. b.i.d.): survived significantly longer; survival compared with vehicle-injected mice ([2]; 249 mg/kg i.p. b.i.d.): survived significantly longer; IC50 [8]: 0.3 mM; number of autophagic vacuoles (DAPGreen fluorescence) [9]: increased; number of autophagic vacuoles (DAPGreen fluorescence) [10]: increased; IC50 ([3]; SKM-1, 72 h): 200 µM; IC50 ([4]; HL-60, 72 h): 620 µM; IC50 ([5]; THP-1, 72 h): 320 µM; effect on cell cycle status (predicted, no experimental data) ([11]; SKM1): no change in the cell cycle status was predicted; adverse effects on white blood cell counts, hemoglobin concentrations, platelet counts [17]: no adverse effects |
| CC(O)COC[C@H]1O[C@@H]2O[C@H]3[C@H](O)[C@@H](O)[C@@H](O[C@H]4[C@H](O)[C@@H](O)[C@@H](O[C@H]5[C@H](O)[C@@H](O)[C@@H](O[C@H]6[C@H](O)[C@@H](O)[C@@H](O[C@H]7[C@H](O)[C@@H](O)[C@@H](O[C@H]8[C@H](O)[C@@H](O)[C@@H](O[C@H]1[C@H](O)[C@H]2O)O[C@@H]8COCC(C)O)O[C@@H]7COCC(C)O)O[C@@H]6COCC(C)O)O[C@@H]5COCC(C)O)O[C@@H]4COCC(C)O)O[C@@H]3COCC(C)O (stereo partly drawn) [HP-β-CyD, 2-Hydroxypropyl-β-cyclodextrin] | 49.5 days | 38 days |  |  |  | 35 days | reduced the cell viability of the AML cell lines in a dose-dependent manner | underwent apoptosis | dose-dependent increase in the percentage of cells in G2/M phase | dose-dependent increase in the percentage of cells in G2/M phase | dose-dependent increase in the percentage of cells in G2/M phase | not affected by the presence or absence of autophagy inhibitors | not affected by the presence or absence of autophagy inhibitors | mode of cell death at high concentration ([7]; 15 mM HP-β-CyD): appeared to undergo necrosis; IC50 ([8]; Homo sapiens): 3.14 mM; colony formation [18]: reduced colony numbers; IC50 ([3]; Homo sapiens, SKM-1, 72 h): 9440 µM; IC50 ([4]; Homo sapiens, HL-60, 72 h): 7660 µM; IC50 ([5]; Homo sapiens, THP-1, 72 h): 9050 µM; effect on cell cycle status ([11]; SKM1, before and after exposure): no change in cell cycle; change in blood cell counts compared with vehicle (PBS) ([19]; 8 days after intraperitoneal injection, exception: higher dose of HP-β-CyD (10,000 mg/kg b.i.d.)): no significant change; Hb ([19]; HP-β-CyD 2000 mg/kg i.p.): 12.4 ± 0.67 g/dL; Plt ([19]; HP-β-CyD 2000 mg/kg i.p.): 64.5 ± 2.29 ×10^4/μL; WBC ([19]; HP-β-CyD 2000 mg/kg i.p.): 44.7 ± 12.65 ×10^2/μL; Hb ([19]; HP-β-CyD 6000 mg/kg i.p.): 14.3 ± 0.25 g/dL; Plt ([19]; HP-β-CyD 6000 mg/kg i.p.): 60.2 ± 10.69 ×10^4/μL; WBC ([19]; HP-β-CyD 6000 mg/kg i.p.): 50.0 ± 2.34 ×10^2/μL; Plt ([19]; HP-β-CyD 10,000 mg/kg i.p.): 75.5 ± 17.83 ×10^4/μL; WBC ([19]; HP-β-CyD 10,000 mg/kg i.p., p < 0.05): 30.5 ± 1.65 ×10^2/μL |
